In patent publication US20070117804A1, “Imidazopyrazines as protein kinase inhibitors” (Schering Corporation, priority 2005, published 2007):

Experiments:
Cyclin E/CDK2 = target: T1, Cyclin E/CDK2 (Homo sapiens, UniProt P24941); test: CDK2 assay (Cyclin E/CDK2 in vitro kinase SPA assay, biotinylated Histone H1 peptide); type: biochemical; settings: read-out: CDK2 IC 50
T1 construct: made in house; host or cells: SF9 insect cells, baculovirus co-infection

His-CHK1 = target: T2, His-CHK1 (Homo sapiens, UniProt O14757); test: CHK1 SPA assay (recombinant His-CHK1, biotinylated CDC25C peptide, 33P-ATP)
T2 sequence (O14757 1-265 limits assumed): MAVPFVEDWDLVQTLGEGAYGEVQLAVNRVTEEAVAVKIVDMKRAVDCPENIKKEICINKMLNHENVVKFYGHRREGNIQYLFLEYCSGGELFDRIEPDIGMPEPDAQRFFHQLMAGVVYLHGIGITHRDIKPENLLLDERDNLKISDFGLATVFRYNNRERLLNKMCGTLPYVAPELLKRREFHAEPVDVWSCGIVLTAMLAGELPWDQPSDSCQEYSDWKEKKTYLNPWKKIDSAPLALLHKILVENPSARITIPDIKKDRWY

SMILES	IC50 (Cyclin E/CDK2) [µM]	IC50 (His-CHK1) [µM]
CCN(CC)S(=O)(=O)c1sc(Nc2nc(C3=CCCNC3)cn3c(-c4cnn(C)c4)cnc23)cc1C	8.28	
Cc1cc(Nc2nc(C3=CCCNC3)cn3c(-c4cnn(C)c4)cnc23)sc1S(=O)(=O)N1CCOCC1	6.95	
Cn1cc(-c2cnc3c(Nc4ccns4)nc(CCN)cn23)cn1	0.55	0.017
